The results in this text go back to PubChem BioAssay (NCI).

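Test compounds were applied to cells in 96-well plates for 48 hours at 5 doses. TGI: concentration producing complete growth inhibition.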 A value given as a limit tells only on which side of the number the result lay.

Among the test systems are CAKI-1 renal; DU-145 prostate; HCT-116 colon; HT29 colon; M14 melanoma; MALME-3M melanoma; MCF7 breast; MDA-MB-231 breast; MDA-MB-435; MOLT-4 leukemia; NCI-H23 lung; OVCAR-8 ovarian; SF-539 CNS; SK-MEL-2 melanoma; SK-MEL-5 melanoma; SK-OV-3 ovarian; TK-10 renal; U251 CNS; UACC-257 melanoma; UO-31 renal.
Holding throughout (test): growth of human tumour cells (NCI), 48 h

Consider `COc1cc(S(=O)(=O)Nc2nc(-c3ccc(N4C(=O)/C(=C/C=C/c5ccccc5)N=C4c4ccccc4)cc3)cs2)ccc1Cl`, for which the TGI in the assay with CAKI-1 renal, in the assay on DU-145 prostate, in the assay with HCT-116 colon, in the assay on HT29 colon, in the assay with M14 melanoma and with MALME-3M melanoma was over 100 µM each time. The TGI in the assay with MCF7 breast, with MDA-MB-231 breast, in the assay on MDA-MB-435, in the assay on MOLT-4 leukemia, with NCI-H23 lung and with OVCAR-8 ovarian was over 100 µM each time. The TGI in the assay on SF-539 CNS, with SK-MEL-2 melanoma, in the assay with SK-MEL-5 melanoma, in the assay with SK-OV-3 ovarian, in the assay on TK-10 renal and with U251 CNS was over 100 µM each time. Further, the TGI in the assay on UACC-257 melanoma and in the assay with UO-31 renal was over 100 µM throughout.
On to `CC1C/C(=C\c2ccc(OC(=O)C(C)(C)C)cc2)C(=O)/C(=C/c2ccc(OC(=O)C(C)(C)C)cc2)C1` (stereo not drawn), for which the TGI in the assay with CAKI-1 renal, in the assay with DU-145 prostate, with HCT-116 colon, in the assay with HT29 colon, in the assay with M14 melanoma and in the assay with MALME-3M melanoma was over 100 µM each time. In addition, the TGI was over 100 µM in the assay with MCF7 breast; over 100 µM in the assay with MDA-MB-231 breast; over 100 µM in the assay on MDA-MB-435; 37.7 µM in the assay with MOLT-4 leukemia; over 100 µM in the assay with NCI-H23 lung; 86.6 µM in the assay with OVCAR-8 ovarian. The TGI in the assay with SF-539 CNS, in the assay with SK-MEL-2 melanoma, in the assay with SK-MEL-5 melanoma, in the assay with SK-OV-3 ovarian, with TK-10 renal and with U251 CNS was over 100 µM each time. The compound further gave a TGI in the assay on UACC-257 melanoma of over 100 µM.
For `O=C(CC(C(=O)c1cccs1)c1cccs1)c1ccsc1` (stereo not drawn), the TGI in the assay with CAKI-1 renal, in the assay with DU-145 prostate, in the assay on HCT-116 colon, in the assay on HT29 colon, in the assay on M14 melanoma and with MALME-3M melanoma was over 100 µM throughout. Besides, the TGI in the assay with MCF7 breast was over 100 µM; with MDA-MB-231 breast, over 100 µM; with MDA-MB-435 it was 43.1 µM; in the assay on MOLT-4 leukemia, over 100 µM; with NCI-H23 lung it was over 100 µM; with OVCAR-8 ovarian, over 100 µM. In addition, the TGI with SF-539 CNS, in the assay with SK-MEL-2 melanoma, with SK-MEL-5 melanoma, with SK-OV-3 ovarian, in the assay with TK-10 renal and in the assay with U251 CNS was over 100 µM each time. Also, the TGI with UACC-257 melanoma and with UO-31 renal was over 100 µM throughout.
As for `COc1cccc(/C=C2\CCCc3ccccc3C2=O)c1`, the TGI with CAKI-1 renal was over 100 µM; in the assay with DU-145 prostate, 60 µM; in the assay with HCT-116 colon it was 27.9 µM; in the assay with HT29 colon it was 52.3 µM; in the assay on M14 melanoma, 25.6 µM; in the assay on MALME-3M melanoma it was 43 µM. Further, the TGI was 51.6 µM in the assay with MCF7 breast; 32.5 µM in the assay with MDA-MB-231 breast; 30.1 µM with MDA-MB-435; over 100 µM in the assay with MOLT-4 leukemia; 32.6 µM in the assay with NCI-H23 lung; 51.5 µM in the assay with OVCAR-8 ovarian. Besides, the TGI with SF-539 CNS amounted to 32 µM; in the assay with SK-MEL-2 melanoma, 27.4 µM; with SK-OV-3 ovarian, 79.3 µM; with TK-10 renal, 82.6 µM; with U251 CNS, 29.3 µM; with UACC-257 melanoma, 33.2 µM. This compound also yielded a TGI with UO-31 renal of 29.7 µM.
With `CC[C@H](Nc1c(O)c2c(c(O)c1Cl)C(=O)C=CC2=O)C(=O)OC`, the TGI is over 10 µM in the assay on CAKI-1 renal; over 10 µM in the assay on DU-145 prostate; 5.89 µM in the assay on HCT-116 colon; over 10 µM in the assay with HT29 colon; over 10 µM with M14 melanoma; over 10 µM in the assay on MALME-3M melanoma. Also, the TGI with MCF7 breast was over 10 µM; in the assay on MDA-MB-231 breast, 9.76 µM; in the assay with MDA-MB-435, over 10 µM; with MOLT-4 leukemia, 9.57 µM; in the assay with NCI-H23 lung it was over 10 µM; with OVCAR-8 ovarian, over 10 µM. For the same compound, the TGI in the assay on SF-539 CNS is 9.29 µM; in the assay with SK-MEL-2 melanoma it was over 10 µM; in the assay on SK-MEL-5 melanoma it was over 10 µM; with SK-OV-3 ovarian it was over 10 µM; in the assay on TK-10 renal, over 10 µM; with U251 CNS, over 10 µM. In the assay with UACC-257 melanoma, this compound registered a TGI of over 10 µM.
Consider `CCN1C(=O)C(=C/C=C/C=C2/N(C)c3ccccc3C2(C)C)C(=O)N(CC)C1=S`, for which the TGI with CAKI-1 renal, in the assay on DU-145 prostate, with HCT-116 colon, in the assay on HT29 colon, with M14 melanoma and in the assay on MALME-3M melanoma was over 100 µM in each case. The TGI with MCF7 breast, in the assay on MDA-MB-231 breast, with MDA-MB-435, with NCI-H23 lung, with OVCAR-8 ovarian and with SF-539 CNS was over 100 µM throughout. In addition, the TGI in the assay with SK-MEL-2 melanoma, with SK-OV-3 ovarian, in the assay with TK-10 renal, in the assay with UACC-257 melanoma and in the assay with UO-31 renal was over 100 µM each time.
Consider `Clc1nssc1=Nc1nonc1-c1ccccc1`, for which the TGI in the assay on CAKI-1 renal was 34.6 µM; in the assay on DU-145 prostate, 53.5 µM; with HCT-116 colon, over 100 µM; in the assay with HT29 colon, 52.2 µM; with M14 melanoma, 37.2 µM; in the assay with MALME-3M melanoma it was 99.2 µM. Also, the TGI in the assay on MCF7 breast is over 100 µM; with MDA-MB-231 breast it was 34.5 µM; in the assay on MDA-MB-435 it was over 100 µM; in the assay with MOLT-4 leukemia, 69.8 µM; with NCI-H23 lung it was 76.6 µM; in the assay with OVCAR-8 ovarian it was over 100 µM. Also, the TGI was 66.1 µM in the assay on SF-539 CNS; over 100 µM in the assay on SK-MEL-2 melanoma; 37 µM in the assay on SK-MEL-5 melanoma; over 100 µM in the assay with SK-OV-3 ovarian; over 100 µM in the assay on U251 CNS; over 100 µM with UACC-257 melanoma. This compound returned a TGI with UO-31 renal of 36.3 µM.
